Results reported in patent US20030103945A1, “Methods and compositions for stimulating axon regeneration and preventing neuronal cell degeneration” (priority 2001, published 2003).
Where a SMILES comes first, the peptide text is derived from it. The star is where a group is joined. Cbz = O=C(OCc1ccccc1)*; CH2F = FC*

How the values were obtained:
[1] = system: RGCs; assay: Dissociated retinal cell culture, RGC survival and neurite outgrowth; type: cell-based, mouse; design: RGC death in dissociated retinal cell culture: dose or concentration left out as unconfirmed
Source text: Whether these two activities of neurons, survival and axonal growth, can be separated in vitro was next examined. The anti-apoptotic function of bcl-2 is well established (Davies, A. A TINS 18, 355-358 (1995); Korsmeyer, S. J. hnmunol. Today 13, 285-288 (1992); Farlie, et al. Proc. Natl. Acad Sci. USA 92, 4397-4401 (1995); Bonfanti, L. et al. J Neurosci. 16, 4186-4194 (1996)). Therefore, it is especially important to examine whether its growth-promoting activity is simply an indirect consequence of supporting cell survival. […] Note that this occurs in the absence of any neurotrophic factors added to the culture medium. The effect of the ICE inhibitor was also tested in the explant coculture system with tissue prepared from wild-type P2 mice. […] While treatment with ZVAD was sufficient to prevent death of RGCs, it is not sufficient to promote axonal growth. […]
The brain sections were visualized with a Nikon microscope and site of the lesion was reconstructed in 3 dimensions with MIT Neurotrace computer software. […] Cell death was detected by staining with the fluorescent dye, SYTOX green fluorescent dead cell stain (Molecular Probes). […]

[2] = system: retinal explants; assay: Retinotectal explant coculture, cell death (SYTOX green) and retinal axon growth; type: cell-based, mouse; design: protection of cells from death compared with bcl-2 transgenic mouse: dose or concentration left out as unconfirmed; details: wild-type P2 mice
Source text: Whether these two activities of neurons, survival and axonal growth, can be separated in vitro was next examined. The anti-apoptotic function of bcl-2 is well established (Davies, A. A TINS 18, 355-358 (1995); Korsmeyer, S. J. hnmunol. Today 13, 285-288 (1992); Farlie, et al. Proc. Natl. Acad Sci. USA 92, 4397-4401 (1995); Bonfanti, L. et al. J Neurosci. 16, 4186-4194 (1996)). Therefore, it is especially important to examine whether its growth-promoting activity is simply an indirect consequence of supporting cell survival. […] Note that this occurs in the absence of any neurotrophic factors added to the culture medium. The effect of the ICE inhibitor was also tested in the explant coculture system with tissue prepared from wild-type P2 mice. […] While treatment with ZVAD was sufficient to prevent death of RGCs, it is not sufficient to promote axonal growth. […] Evidence from other investigators (when viewed in conjunction with that provided herein) also support the theme that cell survival and axonal growth are two independent activities of neurons (Sagot, Y., Tan, S. A-Hammang, J. P., Aebischer, P. & Kato, A. C. J Neurosci. 16, 2335-2341 (1996); Dusart, 1. & Sotelo, C. J Comp. Neurol. 347, 211-232 (1994)). The regenerative failure of retinal axons and the decrease of bcl-2 levels in RGCs occur (E 18) before programmed cell death starts (P 1 P5) (Young, R. W. J Comp. Neurol. 229, 362-373 (1984)). […] These all support the position that bcl-2 promotes axonal growth through a mechanism independent of its anti apoptotic activity.
Brains were dissected into ice-cold Gey's balanced salt solution enriched with glucose. […] Retinal explants were abutted against tectal slices. Tissues were placed on the microporous membrane of Millicell wells (Millipore) and maintained in NeuralBasal medium supplemented with B27 (GIBCO Inc., New York) at 370C for five days. To exclude the possibility that tectal tissues from mutant mice may affect axonal growth of RGCs, a series of parallel experiments were performed in which one retinal explant of each mouse was confronted with the tecturn from the same mouse, while the second retinal explant was placed against the tecturn from another mouse. With this arrangement, retinal explants from each animal had the possibility of being cocultured with the tecturn from a wild-type, heterozygous, or homozygous animal. The number of regenerating axons was sampled by applying the lipophilic carbocyanine fluorescent label, DiI, in crystals to fixed retinal explants. The cocultures were stored in fixative for two-four weeks to allow diffusion of the dye, and labeled retinal axons were viewed with a fluorescence microscope (Nikon).
The brain sections were visualized with a Nikon microscope and site of the lesion was reconstructed in 3 dimensions with MIT Neurotrace computer software. Primary cultures of dissociated retinal cells were prepared from […] wild type or transgenic animals. RGCs were prelabeled by injecting DiI solution (25% in Dimethyl Formamide) into the tectal region bilaterally in PO pups. Cells were plated in 24-cell wells treated with poly-L-lysine (10 μg/ml, 4° C. overnight) and coated with Human Merosin ([…], r.t., 2 hr)(Meyer-Franke, A. and Barres, B. A. Neuron 15, 805-819 (1995)). Cultures were maintained for 2 to 3 days in NeuralBasal medium supplemented with B27. […] Cell death was detected by staining with the fluorescent dye, SYTOX green fluorescent dead cell stain (Molecular Probes). […]

[3] = increasing concentration of ZVAD (50, 100, 200)

## CC(C)[C@H](NC(=O)OCc1ccccc1)C(=O)N[C@@H](C)C(=O)N[C@@H](CC(=O)O)C(=O)CF [ZVAD, Z-Val-Ala-Asp-CH2F] (Cbz-Val-Ala-Asp-CH2F)
[1]; 2 days in culture, retinae of P2 pups
  RGC death in dissociated retinal cell culture: effectively reduced RGC death
[1]; ZVAD-treated dissociated culture, no neurotrophic factors added
  morphology and neurites of labeled RGCs from wild-type animals: round and devoid of neurites
[2]; 200 mM ZVAD
  number of axons that invaded tectal slices, wild-type cultures versus bcl-2 transgenic mice: 10 fold less
[2]; [3]
  number of dying cells in retinal explants with increasing concentration: decreased
  number of growing axons with increasing concentration: did not change significantly
[2]
  protection of cells from death compared with bcl-2 transgenic mouse: protected cells from death almost as well as bcl-2 in the transgenic mouse
[2]; explant coculture
  extent of cell death in retinal explants: reduced the extent of cell death in retinal explants
